This is an account of results in US20090156657A1, “ANTI-INFLAMMATORY COMPOSITION” (Ajinomoto Co., Inc., priority 2006, published 2009).

A short description of test [1]: IBD model mouse: body weight, ingested feed, water drunk. It is filed as in vivo. The following applies: IBD model mice. The text has this:
(§1) 4 days before IL-10 deficient cell transplantation, total 40 SCID mice (7-week-old, were divided into the following 4 groups 1) to 4) (10 mice in each group) and acclimation to a control diet was simultaneously started. Immediately after cell transfer, the feed was changed to the test diet shown in Table 4, and free ingestion was allowed for 3 weeks. The safflower seed extract powder was the same as that in Example 8, and contained 50 wt % of γ-cyclodextrin. N-Feruloylserotonin (FS) was synthesized according to the method of Experimental Example 1. During the test diet ingestion period, the body weight, the amount of ingested feed and the amount of water drunk were measured 3 times a week to monitor the onset of the disease.
(§2) 1) Normal group (normal SCID mice×control diet) 2) Control group (IL-10 deficient cell-transplanted SCID mice×control diet) 3) SSE group (IL-10 deficient cell-transplanted SCID mice×SSE diet*) 4) FS group (IL-10 deficient cell-transplanted SCID mice×FS diet**) *containing FS and p-coumaroyl serotonin (CS) at 0.10 and 0.13 wt %, respectively (based on aglycone) (total serotonin derivative content=[…]) **containing 0.4 wt % of FS aglycone

Test [2] concerns IBD model mice (IL-10 deficient cell-transplanted SCID mice). Put plainly: Inflammatory bowel disease (IBD) model mouse: large intestine and blood cell counts. The test is classed as in vivo. The following applies: diet 3 weeks, vs Control group.
Text: Immunopharmacol., 5, 993-1006 (2005)).
as §1, §2
After the completion of the test diet ingestion period, blood samples were collected under anesthesia, and the length of the isolated large intestine (appendix—anus) and the weight thereof (after washing the contents) were measured. Using the obtained data, t-test was first conducted between the Normal group and the Control group and, after confirmation of the effectiveness of the test, variance analyses were performed between the Control group and each of SSE and FS groups, and the effect of the test substance was compared by Dunnett-test.

The next test concerns VCAM-1 mRNA. Put plainly: VCAM-1 mRNA expression in HAEC by real-time PCR. The following applies: 10 μM 24 h, 25 mM glucose 3 h, GAPDH internal standard, FIG. 3A. The test is classed as cell-based, human. On the procedure:
(§3) HAEC cells pre-treated with 10 μM of CS or FS for 24 hours were stimulated with 25 mM glucose for 3 hours, and total RNA was extracted with Isogenkit (NIPPON GENE CO., LTD.). From 1 μg of RNA, cDNA was synthesized using 100 U/mL of reverse transcriptase (TAKARA BIO INC.) and 0.1 μM of oligo (dT)-adapter (TAKARA BIO INC.) (total volume of reaction mixture; 50 μL) (42° C., 40 minutes). Real-time PCR was performed using 7300 Real Time PCR system (Applied Biosystems Japan Ltd.) and the PCR product was detected by SYBER Green I.
(§4) PCR reaction composition (RT-PCRkit, TAKARA BIO INC.): 12.5 μL Premix Ex Taq, 2.5 μL SYBER Green I, synthesis primer, ROX reference dye, cDNA (corresponding to 20 ng of total RNA), final reaction volume; 25 μL
(§5) Primers having the following sequences were used.
(§6) PCR was conducted under the following conditions.
(§7) thermal denaturation: at 95° C. for 15 seconds, extension reaction: 40 cycles (3 seconds at 95° C., 31 seconds at 60° C.)
(§8) Expression amounts of VCAM-1 and MCP-1 mRNA were calculated using GAPDH as the internal standard.
(In qPCR the cycle at which signal appears reflects the starting amount.)

The test system of test [3] is large intestine tissue of IBD model mice. Put plainly: IBD model mouse: large intestine histopathology (PAS staining). The test is classed as in vivo. The following applies: vs Control group, FIG. 14. The source says:
(§9) At the end of the test described in Example 10, the large intestine (caecum—anus) was cut into about 1 cm pieces from the center to the anus side to give 3 sections in total. One of them was fixed with 10% formalin solution and two were frozen in liquid nitrogen. The large intestine fixed with formalin was embedded in paraffin, and sliced to give transversely sectioned specimens. The specimens were stained by a PAS (Periodic acid Schiff) staining method, and histopathological images were observed. On the other hand, total RNA was extracted from the frozen large intestine tissue with ISOGEN (NIPPON GENE CO., LTD.) Total RNA (2 μg) was subjected to a reverse transcription reaction using a SYBR ExScript™ RT-PCR kit (TaKaRa) and, using this as a template, quantitative realtime PCR was performed using IL-1β, TNF-α and GAPDH. The primers used for the analysis were as follows.

A further test deals with IL-1β mRNA. Nature of the test: IBD model mouse: IL-1β mRNA in large intestine tissue (realtime PCR). The test is classed as in vivo. Particulars: IBD model mice, vs Control group, GAPDH internal standard; FIG. 15.
Text: as §9
Template DNA (2 μl), SYBR Premix Ex Taq™ (TaKaRa, 10 μl), ROX Reference Dye (0.4 μl), 100 μM forward primer (0.04 μl), 100 μM reverse primer (0.04 μl) and sterile water (7.52 μl) were mixed on ice and, using Applied Biosystems 7900HT Fast realtime PCR system, the mixture was heated at 95° C. for 10 seconds, followed by 40 cycles of 95° C., 5 seconds and 60° C., 34 seconds, whereby the DNA was amplified. Using GAPDH as the internal standard, IL-1β and TNF-α expression levels were evaluated.

The test system of another test is MCP-1 mRNA. Nature of the test: MCP-1 mRNA expression in HAEC by real-time PCR. The test is classed as cell-based, human. The following applies: 10 μM 24 h, 25 mM glucose 3 h, GAPDH internal standard, FIG. 3B. On the procedure: as §3, §4, §5, §6, §7, §8
A further test has as its system VCAM-1. Nature of the test: VCAM-1 protein expression on HAEC cell membrane (immunostaining). The test is classed as cell-based, human. Particulars: 0.1-10 μM 24 h, 25 mM glucose 4 h, FIG. 4A. The protocol: (§10) HAEC cells proliferated to confluence in a 96 well microplate were pre-incubated with 0.1-10 μM serotonin derivative for 24 hours, and stimulated with 25 mM glucose for 4 hours. The cell layer was washed with Hanks solution, and then anti-VCAM-1 monoclonal antibody (Becton Dickinson) was added and the cells were incubated at 37° C. for 1 hour. After washing, the cells were incubated with secondary antibody (peroxidase-labeled anti-mouse IgG goat F(ab′)2 fragment; Cappel) for 1 hour. A color development substrate (o-phenylenediamine dihydrochloride) was added and, about 30 minutes later (room temperature), the absorbance (492 nm) of each well was quantified with a microplate reader. The MCP-1 concentration of the medium was quantified with Human MCP-1 Immunoassay Kit (BioSource International).

The next test deals with MCP-1. Put plainly: MCP-1 secretion into medium of HAEC (immunoassay). The test is classed as cell-based, human. Particulars: 0.1-10 μM 24 h, 25 mM glucose 4 h, FIG. 4B. On the procedure: as §10

`COc1cc(/C=C/C(=O)NCCc2c[nH]c3ccc(O)cc23)ccc1O` [FS, N-feruloyl serotonin]: the “body weight change rate (day 0 = 100)” value in test [1] (day 21 vs day 0, mean ± SEM) worked out at 112.5 ± 1.2. Moreover, the “body weight, completion of test diet ingestion (day 21)” value in test [1] (mean ± SEM) is listed as 20.6 ± 0.4 g. Further, the “body weight, start of test diet ingestion (day 0)” value in test [1] (mean ± SEM, baseline) is 18.3 ± 0.3 g. In addition, in test [2] (FIG. 11B), the large intestine weight result was “significantly lower values”. For the same compound, in test [2] (FIG. 11C), the “large intestine weight per unit intestine length” value was “significantly lower values”. For the same compound, in test [2] (FIG. 12B), the platelet count result is on record as “significantly lower”. The leukocyte count entry in test [2] (not statistically significant, FIG. 12A) is given as “tendency toward lower values”. For the same compound, the neutrophil count entry in test [2] (not statistically significant, FIG. 12C) is given as “tendency toward lower values”. In test [2] (not statistically significant, FIG. 12D), the monocyte count entry is reported as “tendency toward lower values”. For the same compound, the “expression amount of VCAM-1 mRNA” value in the test with VCAM-1 mRNA is reported as “significantly suppressed the increase”. Moreover, in test [3], the “number of normal goblet cells” value is listed as “increased number of normal goblet cells” and the “thickening of the large intestine mucosal epithelium” value is recorded as “suppressed thickening”. In the test on IL-1β mRNA, the “mRNA expression level of IL-1β in large intestine tissue” value was “significant decrease”. Also, the “expression amount of MCP-1 mRNA” value with MCP-1 mRNA was “significantly suppressed the increase”. In addition, the “VCAM-1 expression on the cell membrane” value in the test with VCAM-1 is listed as “suppressed the induction of their expressions in a dose-dependent manner”. Moreover, in the test with MCP-1, the “MCP-1 secretion into the medium” value is “suppressed the induction of their expressions in a dose-dependent manner”.
